Data reported in PubChem BioAssay (NCI).
Values joined by “and” are separate entries in the source; they are usually repeats but may differ in a detail not shown here. Equal values may be shown once.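 Each compound was tested at five concentrations against cells in 96-well plates for 48 hours. GI50 = concentration required for 50% inhibition of growth. TGI is the concentration that stops growth completely.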

test system: NCI-H522 lung; test: NCI-60 cell line screen, 48 h

**Q.** For `O=[N+]([O-])c1ccc(Cl)cc1N/N=C/c1ccnc2ccccc12`, which TGI is on record?
**A.** Its TGI is greater than 100 µM.

**Q.** Which TGI does the source give for `COc1ccc2cc1Oc1ccc(cc1)C[C@H]1c3cc(c(OC)cc3CCN1C)Oc1c(O)c(OC)cc3c1[C@H](C2)N(C)CC3` here?
**A.** Its TGI is 55.7 µM.

**Q.** With `Oc1ccc(Cc2cc(Cc3ccc(O)cc3)cc(Cc3ccc(O)cc3)c2)cc1` as the compound, how does the TGI read?
**A.** Its TGI is greater than 50 µM.

**Q.** How did the TGI turn out when `CC1CN(C)c2ccccc2N=C1NN` (configuration not stated) was run?
**A.** Its TGI is greater than 100 µM.

**Q.** Which TGI does the source give for `CC(=O)Oc1cccc2c1C(=O)CCCC2` here?
**A.** Its TGI is greater than 100 µM.

**Q.** For `CCN(CC)C(=S)N/N=C/c1cc([N+](=O)[O-])ccc1O`, which TGI is on record?
**A.** The TGI was 17.6 µM.

**Q.** Which results are given for `COc1ccc(CN2C(=O)/C(=C\c3cc(OC)c(OC)c(OC)c3)c3ccccc32)cc1`?
**A.** GI50: 1.58 µM; TGI: 3.57 µM

**Q.** For `Cc1ccc(NC(=O)CC2Sc3ccccc3NC2=O)cc1C` (configuration not stated), which TGI is on record?
**A.** The TGI was greater than 100 µM.

**Q.** `N[C@@H](CCC(=O)NCP(=O)(O)O)C(=O)O` was tested. Which TGI did it give?
**A.** The TGI was greater than 100 µM.

**Q.** With `CCC(=O)NC(Nc1cc(C)on1)(C(F)(F)F)C(F)(F)F` as the compound, how does the TGI read?
**A.** Its TGI is greater than 100 µM.

**Q.** How did the TGI turn out when `O=C(C1OC1c1ccc(Br)cc1O)C12CC3CC(CC(C3)C1)C2` (configuration not stated) was run?
**A.** The TGI was 45.2 µM.

**Q.** How did the TGI turn out when `Cc1ccc(N(Cc2ccccc2)Cc2ccccc2)cc1` was run?
**A.** Its TGI is 86.8 µM.

**Q.** What does the source list for `O=C1C=C[C@@H](COC2OC(CO)C(O)C(O)C2O)O1` (some centres not stated)?
**A.** GI50: 2.22 µM; TGI: 5.61 µM and 18.4 µM

**Q.** With `c1ccc2c3[nH]c(c2c1)=Nc1ccc(cc1)-c1nc2cc(ccc2o1)N=c1[nH]c(c2ccccc12)=Nc1ccc2nc(oc2c1)-c1ccc(cc1)N=3` as the compound, how does the TGI read?
**A.** Its TGI is greater than 100 µM.

**Q.** `Nc1nc(-c2ccccc2)nc2oc(-c3cccs3)nc12` was tested. Which TGI did it give?
**A.** The TGI was greater than 100 µM.

**Q.** Which results are given for `Cc1ccc(-c2cc(-c3ccco3)c(C#N)c(=S)n2C2OC(CO)C(O)C(O)C2O)cc1` (configuration not stated)?
**A.** GI50: 29.5 µM and 65.4 µM; TGI: > 100 µM

**Q.** Which TGI does the source give for `O=C(Cc1ccc(O)c(O)c1)NCc1c[nH]c2ccccc12` here?
**A.** The TGI was greater than 100 µM.

**Q.** For `COc1ccc(-n2c(C)nc3ccc(NC(=S)Nc4ccccc4)cc3c2=O)cc1`, which TGI is on record?
**A.** Its TGI is greater than 100 µM.

**Q.** How did the TGI turn out when `O=C(NCc1ccccc1)c1n[nH][nH]c1=O` was run?
**A.** The TGI was greater than 100 µM.

test system: SK-MEL-2 melanoma; test: NCI-60 cell line screen, 48 h

**Q.** For `COc1cccc(Nc2nc(-c3cccs3)nc3cc(OC)c(OC)cc23)c1`, which TGI is on record?
**A.** Its TGI is greater than 100 µM.

**Q.** With `O=C1c2cc3c(cc2-c2c1c1ccc(F)cc1c(=O)n2C[C@H](O)[C@@H](O)[C@H](O)CO)OCO3` as the compound, how does the GI50 read?
**A.** The GI50 was 0.18 µM.

**Q.** What about the TGI of the same compound?
**A.** Its TGI is 0.375 µM.

**Q.** `COc1ccc2[nH]cc(/C=C(/C)c3ccncc3)c2c1` was tested. Which GI50 did it give?
**A.** Its GI50 is 58.1 µM.

**Q.** What about the TGI of the same compound?
**A.** Its TGI is > 100 µM and 55.9 µM.

**Q.** With `Cc1cc(Nc2ccc(S(=O)(=O)O)c3cc(S(=O)(=O)O)cc(S(=O)(=O)O)c23)c2ccccc2n1` as the compound, how does the TGI read?
**A.** Its TGI is greater than 100 µM.

**Q.** For `Cc1cc(C)nc(NS(=O)(=O)c2ccc(NC(=O)c3ccc4nc5ccccc5c(Nc5ccc(S(N)(=O)=O)cc5)c4c3)cc2)n1`, which TGI is on record?
**A.** The TGI was greater than 100 µM.

**Q.** How did the TGI turn out when `CC1(C(=O)O)CCC2(C)CCC3(C)C(=CC(=O)C4C5(C)CCC(O)C(C)(C)C5CCC43C)C2C1` (configuration not stated) was run?
**A.** The TGI was 92.4 µM.

**Q.** `COC(=O)[C@@H](O)[C@](O)(CCC(C)C)C(=O)O[C@@H]1C(OC)=C[C@]23CCCN2CCc2cc4c(cc2[C@H]13)OCO4` was tested. Which TGI did it give?
**A.** Its TGI is 9.15 µM.

**Q.** Which TGI does the source give for `Cn1c2ccc3cc2c(=S)c2cc(ccc21)OCCOCCOCCOCCOCCOCCO3` here?
**A.** Its TGI is greater than 10 µM.

**Q.** `CC1(C)O[C@H]2OC(CO[Si](C)(C)C(C)(C)C)C(N=[N+]=[N-])[C@H]2O1` (some centres not stated) was tested. Which TGI did it give?
**A.** Its TGI is 32 µM.

**Q.** With `COc1ccc2cc1Oc1ccc(cc1)C[C@H]1c3cc(c(OC)cc3CCN1C)Oc1c(O)c(OC)cc3c1[C@H](C2)N(C)CC3` as the compound, how does the TGI read?
**A.** Its TGI is 48.5 µM.

**Q.** Which TGI does the source give for `Oc1ccc(Cc2cc(Cc3ccc(O)cc3)cc(Cc3ccc(O)cc3)c2)cc1` here?
**A.** The TGI was greater than 50 µM.

**Q.** How did the TGI turn out when `Nc1ncnc2c1[nH]c(=O)n2-c1ccccc1` was run?
**A.** Its TGI is greater than 100 µM.

**Q.** Which TGI does the source give for `CC1CN(C)c2ccccc2N=C1NN` (configuration not stated) here?
**A.** The TGI was greater than 100 µM.

**Q.** With `CC(=O)Oc1cccc2c1C(=O)CCCC2` as the compound, how does the TGI read?
**A.** Its TGI is greater than 100 µM.

**Q.** For `CCN(CC)C(=S)N/N=C/c1cc([N+](=O)[O-])ccc1O`, which TGI is on record?
**A.** Its TGI is 65.6 µM.

**Q.** With `COc1ccc(CN2C(=O)/C(=C\c3cc(OC)c(OC)c(OC)c3)c3ccccc32)cc1` as the compound, how does the GI50 read?
**A.** Its GI50 is 1.87 µM.

**Q.** And the TGI?
**A.** Its TGI is 4.11 µM.

**Q.** `Cc1ccc(NC(=O)CC2Sc3ccccc3NC2=O)cc1C` (configuration not stated) was tested. Which TGI did it give?
**A.** The TGI was greater than 100 µM.

**Q.** Which TGI does the source give for `N[C@@H](CCC(=O)NCP(=O)(O)O)C(=O)O` here?
**A.** Its TGI is greater than 100 µM.

**Q.** `CCC(=O)NC(Nc1cc(C)on1)(C(F)(F)F)C(F)(F)F` was tested. Which TGI did it give?
**A.** Its TGI is greater than 100 µM.

**Q.** With `CCC(=O)NCC1CCCN2CCCCC12` (configuration not stated) as the compound, how does the TGI read?
**A.** The TGI was greater than 100 µM.

**Q.** With `NC(=O)C(=Cn1c(=S)[nH]c2ccc([N+](=O)[O-])cc21)C(N)=O` as the compound, how does the TGI read?
**A.** The TGI was greater than 100 µM.

**Q.** With `Cc1ccc(N(Cc2ccccc2)Cc2ccccc2)cc1` as the compound, how does the TGI read?
**A.** Its TGI is 63.3 µM.

**Q.** How did the GI50 turn out when `O=C1C=C[C@@H](COC2OC(CO)C(O)C(O)C2O)O1` (some centres not stated) was run?
**A.** Its GI50 is 15.3 µM.

**Q.** And the TGI?
**A.** Its TGI is 36.3 µM and 32.8 µM.

**Q.** `Nc1nc(-c2ccccc2)nc2oc(-c3cccs3)nc12` was tested. Which TGI did it give?
**A.** Its TGI is greater than 100 µM.

**Q.** How did the GI50 turn out when `Cc1ccc(-c2cc(-c3ccco3)c(C#N)c(=S)n2C2OC(CO)C(O)C(O)C2O)cc1` (configuration not stated) was run?
**A.** The GI50 was 39.3 µM and > 100 µM.

**Q.** What about the TGI of the same compound?
**A.** The TGI was greater than 100 µM.

**Q.** For `O=C(Cc1ccc(O)c(O)c1)NCc1c[nH]c2ccccc12`, which TGI is on record?
**A.** The TGI was greater than 100 µM.

**Q.** For `COc1nncc2[nH]c(-c3ccccc3)cc12`, which TGI is on record?
**A.** Its TGI is greater than 100 µM.

**Q.** Which TGI does the source give for `COc1ccc(-n2c(C)nc3ccc(NC(=S)Nc4ccccc4)cc3c2=O)cc1` here?
**A.** Its TGI is greater than 100 µM.

**Q.** Which TGI does the source give for `O=C(NCc1ccccc1)c1n[nH][nH]c1=O` here?
**A.** Its TGI is greater than 100 µM.

**Q.** For `O=S(=O)(c1ccccc1)c1cccc2c1NCCC2`, which TGI is on record?
**A.** Its TGI is greater than 10 µM.

test system: MDA-N; test: NCI-60 cell line screen, 48 h

**Q.** `Cc1cc(Nc2ccc(S(=O)(=O)O)c3cc(S(=O)(=O)O)cc(S(=O)(=O)O)c23)c2ccccc2n1` was tested. Which TGI did it give?
**A.** The TGI was greater than 100 µM.

**Q.** How did the TGI turn out when `CC1(C(=O)O)CCC2(C)CCC3(C)C(=CC(=O)C4C5(C)CCC(O)C(C)(C)C5CCC43C)C2C1` (configuration not stated) was run?
**A.** Its TGI is greater than 100 µM.

**Q.** With `Cn1c2ccc3cc2c(=S)c2cc(ccc21)OCCOCCOCCOCCOCCOCCO3` as the compound, how does the TGI read?
**A.** The TGI was greater than 10 µM.

**Q.** Which TGI does the source give for `CC1(C)O[C@H]2OC(CO[Si](C)(C)C(C)(C)C)C(N=[N+]=[N-])[C@H]2O1` (some centres not stated) here?
**A.** Its TGI is 53.8 µM.

**Q.** How did the TGI turn out when `O=[N+]([O-])c1ccc(Cl)cc1N/N=C/c1ccnc2ccccc12` was run?
**A.** Its TGI is greater than 100 µM.

**Q.** `Oc1ccc(Cc2cc(Cc3ccc(O)cc3)cc(Cc3ccc(O)cc3)c2)cc1` was tested. Which TGI did it give?
**A.** The TGI was greater than 50 µM.

**Q.** How did the TGI turn out when `Nc1ncnc2c1[nH]c(=O)n2-c1ccccc1` was run?
**A.** The TGI was greater than 100 µM.

**Q.** Which TGI does the source give for `CC1CN(C)c2ccccc2N=C1NN` (configuration not stated) here?
**A.** Its TGI is greater than 100 µM.

**Q.** Which TGI does the source give for `CCN(CC)C(=S)N/N=C/c1cc([N+](=O)[O-])ccc1O` here?
**A.** The TGI was greater than 100 µM.

**Q.** With `N[C@@H](CCC(=O)NCP(=O)(O)O)C(=O)O` as the compound, how does the TGI read?
**A.** Its TGI is greater than 100 µM.

**Q.** For `CCOP(=O)(OCC)C(F)(F)c1ccc(CC(NC(=O)OC(C)(C)C)C(=O)O)cc1` (configuration not stated), which TGI is on record?
**A.** The TGI was greater than 10 µM.

**Q.** With `CCC(=O)NCC1CCCN2CCCCC12` (configuration not stated) as the compound, how does the TGI read?
**A.** The TGI was greater than 100 µM.

**Q.** How did the TGI turn out when `NC(=O)C(=Cn1c(=S)[nH]c2ccc([N+](=O)[O-])cc21)C(N)=O` was run?
**A.** Its TGI is greater than 100 µM.

**Q.** With `O=C(C1OC1c1ccc(Br)cc1O)C12CC3CC(CC(C3)C1)C2` (configuration not stated) as the compound, how does the TGI read?
**A.** Its TGI is 32.8 µM.

**Q.** With `Cc1ccc(N(Cc2ccccc2)Cc2ccccc2)cc1` as the compound, how does the TGI read?
**A.** Its TGI is greater than 100 µM.

**Q.** With `c1ccc2c3[nH]c(c2c1)=Nc1ccc(cc1)-c1nc2cc(ccc2o1)N=c1[nH]c(c2ccccc12)=Nc1ccc2nc(oc2c1)-c1ccc(cc1)N=3` as the compound, how does the TGI read?
**A.** The TGI was greater than 100 µM.

**Q.** With `Cc1ccc(-c2cc(-c3ccco3)c(C#N)c(=S)n2C2OC(CO)C(O)C(O)C2O)cc1` (configuration not stated) as the compound, how does the TGI read?
**A.** Its TGI is greater than 100 µM.

**Q.** `COc1nncc2[nH]c(-c3ccccc3)cc12` was tested. Which TGI did it give?
**A.** Its TGI is greater than 100 µM.

**Q.** `O=C(NCc1ccccc1)c1n[nH][nH]c1=O` was tested. Which TGI did it give?
**A.** The TGI was greater than 100 µM.

**Q.** `O=S(=O)(c1ccccc1)c1cccc2c1NCCC2` was tested. Which TGI did it give?
**A.** The TGI was greater than 100 µM.
